# Values quoted from earlier work as cited in patent US8048872B2, “Treatment of hyperproliferative diseases with vinca alkaloid N-oxide and analogs” (Stat of Oregon Acting by and Through The Oregon State Board …, priority 2006, dated 2011).
# Where two headings read alike, the source gives them in different places.
# Settings: cited from earlier work
smiles,measurement,setting,value
O=c1[nH]cc(F)c(=O)[nH]1 [5-Fluorouracil],Diarrhea,"human, in vivo, iv",Diarrhea* 22%
same,Hand-Foot Syndrome,"human, in vivo, iv",Syndrome* 14%
same,Leukopenia/Neutropenia Toxicity,"human, in vivo, iv",Grade III-IV 0%
same,Stomatitis,"human, in vivo, iv",Stomatitis* 31%
CC1=C(/C=C/C(C)=C/C=C/C(C)=C/C(=O)O)C(C)(C)CCC1 [ATRA],Hepatotoxicity,Maintenance Therapy (n = 94),Hepatotoxicity 5.3%
same,Infection,Maintenance Therapy (n = 94),Infection 7.4%
same,Life-Threatening Toxicity,Maintenance Therapy (n = 94),Toxicity 36%
same,Neurotoxicity,Maintenance Therapy (n = 94),Neurotoxicity 11.7%
CN(C)c1nc(N(C)C)nc(N(C)C)n1 [Altretamine],Anemia Grade III-IV,"human, in vivo, iv",Anemia Grade III-IV 2%
same,Fatigue,"human, in vivo, iv",Fatigue 9%
same,Nausea,"human, in vivo, iv",Nausea 14%
same,Neurologic,"human, in vivo, iv",Neurologic 2%
same,Vomiting,"human, in vivo, iv",Vomiting 12%
O=NN(CCCl)C(=O)NCCCl [BCNU (carmustine)],Nausea/Vomiting,Grade III-IV,Nausea/Vomiting 5%
same,Thrombocytopenia,Grade III-IV,Thrombocytopenia 21%
same,Leukopenia,Grade III,Grade III 4%
same,Leukopenia,Grade IV,Grade IV 1%
CCCCCOC(=O)Nc1nc(=O)n([C@@H]2O[C@H](C)[C@@H](O)[C@H]2O)cc1F [Capecitabine],Dehydration,"human, in vivo, iv",Dehydration 4%
same,Fatigue,"human, in vivo, iv",Fatigue 7%
same,Hyperbilirubinemia,"human, in vivo, iv",17.3%
same,Hyperglycemia,"human, in vivo, iv",Hyperglycemia 8.7%
same,Leukopenia/Neutropenia Toxicity,"human, in vivo, iv",Grade III-IV 3%
same,Nausea,"human, in vivo, iv",Nausea 4%
same,Stomatitis,"human, in vivo, iv",Stomatitis 3%
same,Vomiting,"human, in vivo, iv",Vomiting 4%
same,Leukopenia,"human, in vivo",Grade III 0.3%
N.N.[Cl][Pt][Cl] [Cisplatin],Anemia Grade III-IV,Grade III-IV,11%
same,Cardiovascular,Grade III-IV,Cardiovascular 2%
same,Leukopenia,Grade III-IV,Grade III-IV 7%
same,Neurologic,Grade III-IV,Neurologic 11%
same,Neutropenic Fever,Grade III-IV,Neutropenic Fever <1%
same,Renal,Grade III-IV,Renal 4%
same,Leukopenia,Grade III,Grade III 18%
same,Leukopenia,Grade IV,Grade IV 3%
same,Hearing Loss (clinical),"human, in vivo",12%
Nc1nc(Cl)nc2c1ncn2[C@H]1C[C@H](O)[C@@H](CO)O1 [Cladribine],Anemia Grade III-IV,Grade III-IV,22%
same,Documented Infection,Grade III-IV,Infections 13%
same,Leukopenia/Neutropenia Toxicity,Grade III-IV,Grade III-IV 87%
same,Neutropenic Fever,Grade III-IV,Neutropenic Fever 42%
same,Thrombocytopenia,Grade III-IV,Thrombocytopenia 20%
Nc1ccn([C@@H]2O[C@H](CO)[C@@H](O)[C@@H]2O)c(=O)n1 [Cytarabine],CNS Toxicities,"human, in vivo, iv",CNS Toxicities 12%
same,CNS Toxicities,"human, in vivo",(32% with age >60 yrs)
CN(C)/N=N/c1[nH]cnc1C(N)=O [Dacarbazine],Anemia Grade III-IV,"human, in vivo, iv",Anemia Grade III-IV 6%
same,Anemia Grade IV,"human, in vivo, iv",Anemia Grade IV 1%
same,Asthenia (Grade III),"human, in vivo, iv",Asthenia (Grade III) 1%
same,Constipation (Grade III),"human, in vivo, iv",(Grade III) 3%
same,Dyspnea,"human, in vivo, iv",Dyspnea 1%
same,Fatigue (Grade III),"human, in vivo, iv",Fatigue (Grade III) 2%
same,Fever (Grade III),"human, in vivo, iv",Fever (Grade III) 2%
same,Headache (Grade III),"human, in vivo, iv",Headache (Grade III) 1%
same,Leukopenia without neutropenia Grade III,"human, in vivo, iv",Grade III 1%
same,Nausea (Grade III),"human, in vivo, iv",Nausea (Grade III) 4%
same,Nausea/Vomiting,"human, in vivo, iv",Nausea/Vomiting 5%
same,Pain (Grade III),"human, in vivo, iv",Pain (Grade III) 13%
same,Somnolence (Grade III),"human, in vivo, iv",(Grade III) 1%
same,Vomiting (Grade III),"human, in vivo, iv",Vomiting (Grade III) 4%
CC(=O)O[C@@]12CO[C@@H]1C[C@H](O)[C@@]1(C)C(=O)[C@H](O)C3=C(C)[C@@H](OC(=O)[C@H](O)[C@@H](NC(=O)OC(C)(C)C)c4ccccc4)C[C@@](O)([C@@H](OC(=O)c4ccccc4)[C@H]21)C3(C)C [Docetaxel],Alopecia,Grade III-IV,Alopecia 13%
same,Asthenia,Grade III-IV,Asthenia 16%
same,Diarrhea,Grade III-IV,Diarrhea 8%
same,Fatigue/Asthenia,Grade III-IV,Fatigue/Asthenia 10%
same,Febrile Neutropenia,Grade III-IV,Febrile Neutropenia 33%
same,Hypersensitivity Reaction,Grade III-IV,Reactions 3%
same,Leukopenia/Neutropenia Toxicity,Grade III-IV,Grade III-IV 93%
same,Nausea,Grade III-IV,Nausea 5%
same,Nausea/Emesis,Grade III-IV,Nausea/Emesis 10%
same,Neuropathy,Grade III-IV,Neuropathy 3%
same,Neurosensory,Grade III-IV,Neurosensory 5%
same,Neutropenic Fever,Grade III-IV,Neutropenic Fever 9%
same,Severe Fluid Retention,Grade III-IV,8%
same,Stomatitis,Grade III-IV,Stomatitis 9%
same,Thrombocytopenia,Grade III-IV,Thrombocytopenia 4%
same,Vomiting,Grade III-IV,Vomiting 3%
same,Granulocytopenia,Grade III,Grade III 6%
same,Leukopenia,Grade III,Grade III 8%
same,Thrombocytopenia,Grade III,(Grade III) 6%
same,Granulocytopenia,Grade IV,Grade IV 72%
same,Neutropenic Infection,"human, in vivo, iv",(Grade III-IV) 11%
COc1cccc2c1C(=O)c1c(O)c3c(c(O)c1C2=O)C[C@@](O)(C(=O)CO)C[C@@H]3O[C@H]1C[C@H](N)[C@H](O)[C@H](C)O1 [Doxorubicin],Cardiotoxicity,"human, in vivo, iv",Cardiotoxicity 1%
same,Gastrointestinal,"human, in vivo, iv",Gastrointestinal 3%
same,Infection,"human, in vivo, iv",Infection 3%
same,Leukopenia/Neutropenia Toxicity,"human, in vivo, iv",Grade III-IV 8%
same,Leukopenia/Neutropenia Toxicity Grade III-IV,"human, in vivo, iv",Grade III-IV 51%
same,Leukopenia/Neutropenia Toxicity Grade IV,"human, in vivo, iv",Grade IV 21%
same,Mucositis,"human, in vivo, iv",Mucositis 6%
same,Nausea/Vomiting,"human, in vivo, iv",Nausea/Vomiting 13%
same,Thrombocytopenia,"human, in vivo, iv",Thrombocytopenia 2%
